The record followed here is PubChem BioAssay AID1053145 (Broad Institute, 2014).

Each structure is given as a SMILES string. The source made the active and inactive calls. No rule for the calls is given here.

For this assay, the system named is HepG2 viability, CellTiter-Glo ATP luminescence, overnight. Kind of assay: cytotoxicity in HepG2 hepatoma cells – cell-based, ATP luminescence, cherry-pick, cytotoxicity control for Trib1 inducer project, dose response (AID 1053145).

By AC50 is commonly meant the concentration at which the activity in the assay is half-maximal. As for `CN1C(=O)c2cc(NC(=O)c3ccc(C(F)(F)F)cc3)ccc2OC[C@@H]2O[C@@H](CC(=O)NC3Cc4ccccc4C3)CC[C@@H]21`, the AC50 was > 25 µM (inactive).

On to `CN1C(=O)c2cc(NC(=O)c3ccc(C(F)(F)F)cc3)ccc2OC[C@@H]2O[C@H](CC(=O)NC3Cc4ccccc4C3)CC[C@@H]21`, for which the AC50 was > 25 µM (inactive).
